PMC9220178, “Preclinical Characterization of Antioxidant Quinolyl Nitrone QN23 as a New Candidate for the Treatment of Ischemic Stroke” (Antioxidants, 2022)

Assays:
[1] = tested on: adult male Wistar rats, four-vessel occlusion (4VO) transient forebrain ischemia; assay: Long-term neuronal viability by S6 protein immunostaining, hippocampal CA1; format: in vivo, rat; settings: 2.0 mg/kg i.v. at reperfusion onset; 11 weeks of reperfusion
Method: Transient forebrain ischemia was induced in adult male Wistar rats (10–12 weeks, Charles River, L’Arbresle, France) by the standard four-vessel occlusion (4VO) model previously described. Briefly, animals were anesthetized by intraperitoneal injection of a combination of ketamine, diazepam, and atropine (62.5, 5.0, and 0.25 mg/kg, respectively); positioned in a stereotactic device; and both vertebral arteries were cauterized. The next day, anesthesia was induced with 4% isoflurane and maintained at 2–2.5% isoflurane for carotid artery dissection. After anesthesia withdrawal, the carotid arteries were occluded with an atraumatic vascular clamp to induce brain ischemia. During the entire surgical procedure, temperature was monitored at 2 min intervals and kept at 37 °C. After 15 min of ischemia, the carotid arteries were unclamped for brain reperfusion. The animals were studied after 5 days of reperfusion (R5d), or after 11 weeks of reperfusion (long-term studies), and then they were euthanized under deep anesthesia. Animals from the sham control group were handled in the same way, but without occlusion of the carotid arteries. Ischemic animals were treated with vehicle solution (ethanol/polyethylene glycol 400/saline, 1:300:200 v/v), or with nitrones QN23 or NXY-059 in vehicle solution, as a single injection through the tail vein at the onset of reperfusion. […]

[2] = Solubility studies for the injection vehicle; format: physicochemical; settings: ethanol/saline, 1:9 v/v; highest concentrations (for doses up to 2.5 mg/kg)
Method: In the following section, we describe the effect of different doses of QN23 (1.0, 1.5, 2.0, and 2.5 mg/kg) administered intravenously (see Materials and Methods, Section 2.2). In order to explore this wider range of concentrations, solubility studies were carried out before the in vivo experiments in order to assess a proper pharmacological formulation. For the highest concentrations, QN23 was not soluble in our usual ethanolic vehicle (ethanol/saline, 1:9 v/v). After exploration of different formulations able to provide a safe injection method, we got the desired concentrations using a vehicle of ethanol, polyethylene glycol 400, and saline (1:300:200, v/v). Using this vehicle, animals were treated intravenously with QN23 concentrations of 1.0, 1.5, 2.0, and 2.5 mg/kg as a single injection at the onset of the reperfusion period after transient cerebral ischemia. After five days of recovery (R5d), neuronal death, apoptosis, and neurodeficit score were determined (Figure 1 and Figure 2).

[3] = parameters: method as in PMID 30715875; settings: in vitro; cited from earlier work
[4] = tested on: adult male Wistar rats, four-vessel occlusion (4VO) transient forebrain ischemia; assay: Neuronal apoptosis by TUNEL assay after transient global cerebral ischemia (4VO); format: in vivo, rat; settings: for Neuroprotection (neuronal apoptosis, TUNEL): vehicle = 0%
Method: Transient forebrain ischemia was induced in adult male Wistar rats (10–12 weeks, Charles River, L’Arbresle, France) by the standard four-vessel occlusion (4VO) model previously described. Briefly, animals were anesthetized by intraperitoneal injection of a combination of ketamine, diazepam, and atropine (62.5, 5.0, and 0.25 mg/kg, respectively); positioned in a stereotactic device; and both vertebral arteries were cauterized. The next day, anesthesia was induced with 4% isoflurane and maintained at 2–2.5% isoflurane for carotid artery dissection. After anesthesia withdrawal, the carotid arteries were occluded with an atraumatic vascular clamp to induce brain ischemia. During the entire surgical procedure, temperature was monitored at 2 min intervals and kept at 37 °C. After 15 min of ischemia, the carotid arteries were unclamped for brain reperfusion. The animals were studied after 5 days of reperfusion (R5d), or after 11 weeks of reperfusion (long-term studies), and then they were euthanized under deep anesthesia. Animals from the sham control group were handled in the same way, but without occlusion of the carotid arteries. Ischemic animals were treated with vehicle solution (ethanol/polyethylene glycol 400/saline, 1:300:200 v/v), or with nitrones QN23 or NXY-059 in vehicle solution, as a single injection through the tail vein at the onset of reperfusion. For the therapeutic window experiments, the animals were also treated at reperfusion times 1, 3, and 6 h after ischemia. The treatments were prepared by an independent researcher and administered with concealed allocation. Treatments were administered in a randomized order obtained by a computer-based randomization program. To determine the sample size, a power analysis (http://www.biomath.info/power/ttest.htm, accessed on 12 March 2020) with significance level set at 0.05 and statistical power set at 0.8 (80%) rendered a sample size of <6 subjects per group. A total of 120 ischemic animals (30 animals treated with vehicle, 60 treated with QN23, and 30 treated with NXY-059) and 9 sham control animals were included in these studies. Additionally, 13 animals were excluded from the study: 6 animals were not ischemic and 7 animals died within the 24 h after the surgical procedure (5 vehicles, 1 QN23-treated at 1.0 mg/kg, and 1 QN23-treated at 2.0 mg/kg). The Animal Care Ethics Committee of the Hospital Universitario Ramón y Cajal (Madrid, Spain) authorized all the procedures involving the animal experimentation reported here (authorization number 04/2020). These experiments were performed according to ARRIVE guidelines and the legislation on the protection of animals used for scientific purposes in Spain (RD 53/2013) and the EU (Directive 2010/63/EU). The study was designed and conducted according to the STAIR guidelines regarding physiological monitoring, sample randomization, predefined exclusion criteria, allocation concealment, blinded assessment of outcomes, dose–response definition, and a conflict-of-interest statement.
After 5 days of reperfusion (R5d), or at 11 weeks of reperfusion in long-term studies, animals were euthanized by transcardiac perfusion via the left ventricle under deep anesthesia. First, blood was washed out with 200 mL of ice-cold saline medium, followed by fixation with 4% (w/v) paraformaldehyde solution in PBS for brain preservation. Then, the brains were carefully removed from the cranial cavity and placed in 4% (w/v) paraformaldehyde solution in PBS overnight at 4 °C. The next day, the brains were sequentially placed in 10%, 20%, and 30% (w/v) sucrose in PBS until sunken, and finally embedded in Tissue-Tek O.C.T. (Sakura Finetek, Torrance, CA, USA) before freezing at −80 °C. Brain coronal sections containing the hippocampus region were obtained by cryostat sectioning at the level of interaural line +5.7 ± 0.2 mm on Real Capillary Gap microscope slides (Agilent Dako, Santa Clara, CA, USA). […]

[5] = tested on: adult male Wistar rats, four-vessel occlusion (4VO) transient forebrain ischemia; assay: Long-term behavioral tests in the Y maze; format: in vivo, rat; settings: 2.0 mg/kg i.v. at reperfusion onset, 11 weeks after ischemia
Method: Long-term assessment of neurological damage after the ischemic episode was performed by the evaluation of the spontaneous exploratory activity (spatial recognition) and spatial memory skills in the Y maze.
For the assessment of the exploratory activity and spatial recognition, control animals and ischemic animals treated with vehicle, QN23, or NXY-059 were placed in the center of the maze and allowed free exploration for 8 min. An independent researcher blind to the treatment allocation registered the total number of arms that the animal entered indistinctly (arm entries), and the times that the animal explored the three different arms of the maze consecutively (alternations or triads).
For the assessment of spatial memory, experiments consisted of two trials. For the first trial (training), control and ischemic animals treated with vehicle or QN23 were placed into one of the arms (start arm) and allowed to explore the Y maze for 10 min with one of the arms closed. One hour after the training trial, the animals were returned to the Y maze and the second trial was conducted. The animals were placed in the same start arm as in the training trial, but now with the remaining two arms of the maze available for exploration for 3 min. A researcher blind to the treatment allocation registered the first choice of arm for entry (novel or old).

## COc1ccc2nc(Cl)c(/C=[N+](\[O-])C(C)(C)C)cc2c1 [QN23, (Z)-N-tert-Butyl-1-(2-chloro-6-methoxyquinolin-3-yl)methanimine Oxide]
[1]
  S6-positive cells (viable neurons) in hippocampal CA1: preserved a large number of viable neurons
[2]
  Solubility in ethanolic vehicle: not soluble
[3]
  Hydroxyl radical (·OH) scavenging: potent scavenger
[4]; 2.0 mg/kg i.v., CA1 and cortical regions, R5d, times tested 0, 1, 3, 6 h
  Therapeutic window: injection time after reperfusion onset with significantly reduced apoptosis-positive cells: up to 3 h
[4]; CA1, 1.5 mg/kg i.v. at reperfusion onset, R5d
  Neuroprotection (neuronal apoptosis, TUNEL): 16.2%
[4]; CA1, 2.0 mg/kg i.v. at reperfusion onset, R5d
  Neuroprotection (neuronal apoptosis, TUNEL): 27.8%
[4]; CA1 and cortical regions, 2.0 and 2.5 mg/kg i.v. at reperfusion onset, R5d
  Number of apoptotic cells compared with vehicle: significant decrease
[4]; cortical region, 1.5 mg/kg i.v. at reperfusion onset, R5d
  Neuroprotection (neuronal apoptosis, TUNEL): 85.0%
[4]; cortical region, 2.0 mg/kg i.v. at reperfusion onset, R5d
  Neuroprotection (neuronal apoptosis, TUNEL): 88.0%
[4]; either CA1 or cortical region, i.v., from dose-response curve
  EC50 of neuroprotection, TUNEL assay: 0.3 mg/kg
[5]
  Y maze arm entries (exploratory activity): higher number of new entries
[5]; vehicle 5.0, control 15.75
  Y maze alternations (triads completed), spatial recognition: 7.8
[5]; vehicle 17%, control 75%
  Percentage of animals exploring the novel arm as a first choice (spatial memory): 67%
